According to ChEMBL document CHEMBL3507680, “University of Dundee, Gates Library screen for HepG2 cell viability”:

Assay: Human HepG2 cell viability assay in 384 well format
Format: toxicity, cell-based
Parameters: dose 125 nL, time 70.5 hour; cytotoxicity at 70.5 h: concentration not given beside the values
Details: HepG2 cells, read-out: Inhibition

| SMILES | cytotoxicity at 70.5 h [%] |
| --- | --- |
| CCCC(NC(=O)c1ccccn1)c1nnc2ccccn12 (stereo not drawn) | -12.2 |
| Cc1ncc2c(n1)CN(Cc1ncc(C(C)(C)C)o1)CC2 | -13.9 |
| CN(Cc1ccccn1)C(=O)Nc1cc(C(F)(F)F)c[nH]c1=O | -1.8 |
| Cc1cc(C)c(CNC(=O)N2CCCN(C(=O)C(C)C)CC2)c(C)c1 | 15.9 |
| CCCC(=O)NCC(=O)Nc1cc(F)ccc1SCC(F)F | 2.19 |
| CC(C(=O)N(Cc1ccc(F)cc1)CC(F)(F)F)S(C)(=O)=O (stereo not drawn) | -1.63 |
| COc1cc2c(nn1)CCN(Cc1ncc(C(C)(C)C)o1)C2 | -5.34 |
| CCc1ccsc1CNC(=O)CNC(=O)C(C)(C)C | -7.92 |
| CCC(CO)NC(=O)Nc1cc(F)ccc1Br (stereo not drawn) | -9.27 |
| O=C1CCCN1CCCN1CCCC1Cn1cccn1 (stereo not drawn) | 8.99 |
| CCn1ccnc1CN1CCN(c2ccc3nnc(C)n3n2)CC1 | -8.35 |
| COc1ccccc1NC(=O)CC(C)NCCc1sc(C)nc1C (stereo not drawn) | 8.63 |
| CCc1c(NCc2ccncc2)cnn1CC(C)C | -5.95 |
| COC(=O)CCCN(C)C(c1cccnc1)c1ccc(F)cc1F (stereo not drawn) | 5.6 |
| CCN(Cc1cnn(C)c1)S(=O)(=O)c1ccc(NC(C)=O)cc1 | 9.84 |
| O=C(CN1CCCc2cc(F)cc(F)c21)Nc1ccc(Br)cn1 | -3.51 |
| COc1cccc2c1N(CC(=O)Nc1ccc(Br)cn1)CCC2 | -3.62 |
| Cc1ccc(Cl)cc1NS(=O)(=O)c1cc(C(N)=O)n(C)c1 | -0.833 |
| O=C(NCCNc1ncccn1)c1ccc(Cl)s1 | -5.84 |
| CN(Cc1ccc(Cl)s1)C(=O)NCCN1CCCCCC1=O | -3.32 |
| COC(=O)C(C)(C)NC(=O)c1cnc(C(C)(C)C)s1 | -1.58 |
| CC(C)(NC(=O)c1cnc(C(C)(C)C)s1)C(N)=O | 28.5 |
| CC(C)c1ccc(O)c(C(=O)NCc2nncn2C)c1 | -6.12 |
| O=C(NCCN1CCCCCC1=O)NCc1ccc(Cl)s1 | 2.1 |

| SMILES | cytotoxicity at 70.5 h [%] |
| --- | --- |
| CC(Oc1ccc(F)cc1)C(=O)N(CC(N)=O)C1CCCC1 (stereo not drawn) | 0.347 |
| COc1ccc(CNC(=O)CCn2cc(C)cn2)cc1C | 26.7 |
| CC(Oc1cccc(F)c1)C(=O)N(CC(N)=O)C1CCCC1 (stereo not drawn) | 0.47 |
| CN(CC(=O)NCC(O)c1cccc(F)c1)C(=O)OC(C)(C)C (stereo not drawn) | -3.05 |
| CC(C)c1ccc(O)c(C(=O)NCc2cc[nH]n2)c1 | 20.8 |
| Cc1ccc(CC(NC(=O)CCS(C)(=O)=O)c2ccccn2)cc1 (stereo not drawn) | 0.0206 |
| CNC(=O)c1cc(NC(=O)NC(C)CCc2cccn2C)ccc1F (stereo not drawn) | 22.7 |
| CNC(=O)c1cccc(NC(=O)NC(C)CCc2cccn2C)c1C (stereo not drawn) | 5.28 |
| Cn1cc(S(=O)(=O)Nc2ccc(Cl)cn2)cc1C(N)=O | -3.76 |
| Cc1ccnc(NS(=O)(=O)c2cc(C(N)=O)n(C)c2)c1 | 0.984 |
| O=C1NCCCCC1NC(=O)C1(c2ccc3c(c2)OCCO3)CCCC1 (stereo not drawn) | 27.7 |
| COc1ccc(CCNC(=O)C2CC2)c(Cl)c1 | -1.42 |
| CC1(NC(=O)CC2CCc3ccccc32)CCOCC1 (stereo not drawn) | -2.46 |
| COCCOc1ccc(S(=O)(=O)Nc2cccc(O)c2F)cc1C | -7.45 |
| CCN(Cc1cnn(C)c1)S(=O)(=O)c1ccc(NC(=O)C(C)(C)C)cc1 | 2.92 |
| CC1CN(C)CCN1C(=O)c1cccn1Cc1cccnc1 (stereo not drawn) | -7.82 |
| COc1ccc(C(=O)NC2CCN(c3ncccn3)CC2)cc1F | -8.33 |
| O=C(Cn1cccnc1=O)NCc1cccnc1OCC(F)(F)F | 2.5 |
| Cc1cccc(S(=O)(=O)NC2CCN(CC(F)(F)F)C2)c1 (stereo not drawn) | -15.5 |
| Cc1cnn(C2CCCN(C(=O)c3cc(-c4cccs4)n[nH]3)C2)c1 (stereo not drawn) | -4.05 |
| C=C(C)CN(CC)C(=O)Nc1ccccc1CN(C)C(C)=O | -12.6 |
| COCCN(CC(F)F)c1cc(C(F)(F)F)nc2ncnn12 | -7.29 |
| CCOc1ccc(C(=O)NC2CCN(c3ncccn3)CC2)cc1C | -0.65 |
| CCN(CC)CCN(CC(C)C)c1cc(C(F)(F)F)nc2ncnn12 | 0.687 |

| SMILES | cytotoxicity at 70.5 h [%] |
| --- | --- |
| CC(NC(=O)c1ccc(C(N)=O)cc1)c1cccc(N2CCOC2=O)c1 (stereo not drawn) | 0.0239 |
| c1ccc2oc(N3CCC(c4nncn4C4CC4)CC3)nc2c1 | 29.8 |
| CC(O)CN(C)S(=O)(=O)c1ccc(C#N)cc1F (stereo not drawn) | -2.23 |
| COc1ccc(S(=O)(=O)Nc2cccnc2-n2cncn2)cc1C | 0.714 |
| COc1cccc(NC(=O)CN(C(C)C)C2CC2)c1 | -2.69 |
| CC1CN(Cc2cccc(CN)c2)CCO1 (stereo not drawn) | -9.2 |
| CC(C(=O)NCc1ccc(F)cc1)N(C)CCN1CCOCC1 (stereo not drawn) | 24.4 |
| Cc1nc(C)c(C(=O)N2CCCc3c(F)ccc(F)c32)o1 | -9.33 |
| Cc1c(F)cccc1S(=O)(=O)N(C)CC(C)O (stereo not drawn) | -11.6 |
| CN(CC(=O)N1CCCC1)C(=O)c1cccn1CCc1ccccc1 | -7.1 |
| COc1ccc(F)cc1CN1CCN(Cc2nccn2C)C(C)C1 (stereo not drawn) | 9.37 |
| COc1cc(CNC2CCCN(c3ncccn3)C2)cc2c1OCO2 (stereo not drawn) | -5.86 |
| COc1ccccc1-c1csc(-c2cccc(C(=O)O)c2)n1 | -4.2 |
| CN1CCOC(CNC(=O)CCc2cc(F)ccc2F)C1 (stereo not drawn) | -4.57 |
| COc1ccc(-c2csc(-c3cccc(C(=O)O)c3)n2)cc1OC | -9.98 |
| CCC(CC)(CNC(=O)OC(C)(C)C)NC(=O)C1CCCO1 (stereo not drawn) | -3.25 |
| CCOc1ccc(NC2CCN(CC(F)(F)F)C2=O)cc1C (stereo not drawn) | -5.71 |
| CSc1ccc(NCC(=O)NCC(=O)N2CCCC2)cc1F | -2.3 |
| CSc1ccc(NCC(=O)NC(=O)NCC(F)(F)F)cc1F | 19.5 |
| Cc1cnn(CCNCC(=O)Nc2ccc(Br)cn2)c1 | -4.64 |
| O=C(Cc1cccs1)N1CCOCC1c1ccccc1 (stereo not drawn) | 15.2 |
| CN(Cc1ccsc1)C(=O)c1cc(S(=O)(=O)N(C)C)ccc1Cl | -7.18 |
| CS(=O)(=O)N1CCCCCC1C1CCN(Cc2nc(C3CC3)no2)CC1 (stereo not drawn) | 5.88 |
| CCOCC1CCCN(C(=O)NCc2cn3c(C)cccc3n2)C1 (stereo not drawn) | 9.89 |

| SMILES | cytotoxicity at 70.5 h [%] |
| --- | --- |
| Cc1cnc(CN(Cc2ccc(Cl)s2)C2CCN(C)C2)o1 (stereo not drawn) | -9.93 |
| CC(=O)N(Cc1ncc(C)o1)C1CCN(Cc2cccnc2)C1 (stereo not drawn) | 2.44 |
| Cc1ccc(CNCc2nnc3n2CC(C(F)(F)F)CC3)o1 (stereo not drawn) | 2.88 |
| Cc1c(C(=O)N2CCCSCC2)nnn1-c1ccccc1Cl | -8.81 |
| CCNC(=O)NC(=O)C(C)N(C)CCOc1ccccc1C (stereo not drawn) | -12.4 |
| Cc1cc(C)c(CNC(=O)C(C)Oc2ccccc2C#N)c(=O)[nH]1 (stereo not drawn) | -13.5 |
| Cc1cc(C)c(CNC(=O)C(C)Oc2cccc(C#N)c2)c(=O)[nH]1 (stereo not drawn) | -11.6 |
| Cc1nc(CCNC(=O)NCC(c2ccco2)N(C)C)cs1 (stereo not drawn) | -14.9 |
| Cc1cc(C)c(CNC(=O)C(C)Oc2ccccc2F)c(=O)[nH]1 (stereo not drawn) | 2.57 |
| COc1ccc2oc(C(C)NC(=O)NCc3noc(C)n3)c(C)c2c1 (stereo not drawn) | -12 |
| Cc1cc(C)n(-c2cncc(NCCNC(=O)C3CCCC3)n2)n1 | -9.3 |
| CC(C)n1cc(S(=O)(=O)N2CCCC(N3CCCCC3)C2)cn1 (stereo not drawn) | -16.1 |
| CN(Cc1nccn1C)S(=O)(=O)N1CCCC1c1ccco1 (stereo not drawn) | -11.4 |
| Cc1ccc(C2CCCN2S(=O)(=O)N(C)Cc2nccn2C)o1 (stereo not drawn) | 5.77 |
| O=C(NCc1ccc2c(c1)OCO2)c1ccc(N2CCCCCC2)nc1 | 2.76 |
| O=C(Nc1nc(-c2ccccc2)ns1)N1CCC(CO)CC1 | -12.6 |
| Cc1cc(C)n(-c2cncc(NCCNC(=O)C(C)(C)C)n2)n1 | -9.22 |
| COc1ccc(CNCc2nnc3n2CC(C(F)(F)F)CC3)cc1 (stereo not drawn) | 26.4 |
| CCc1nnc(SC2CCCN(c3cnn(C)c3)C2=O)n1C (stereo not drawn) | -12.6 |
| CCc1nnc2n1CCN(CC(=O)N(CC)C1=CCCCC1)C2 | 14.1 |
| Cc1ncsc1CN(C)Cc1cc2c(cc1OC(F)F)OCO2 | 5.16 |
| Cc1nn(C)c(N(C)C)c1CNCc1ccc(Cn2cccn2)cc1 | -4.86 |
| CCn1c(C)nnc1CN(C)C1CCN(Cc2ccccn2)C1 (stereo not drawn) | -2.44 |
| O=C(NCC1CC1)c1cc(Cl)c2c(c1)OCCCO2 | 8.95 |

| SMILES | cytotoxicity at 70.5 h [%] |
| --- | --- |
| COc1ccc(C)cc1CNC(=O)C1=NN(c2ccccc2)C(=O)CN1 | -5.19 |
| COc1ncccc1CNC(=O)C1=NN(c2ccccc2)C(=O)CN1 | 0.82 |
| O=C(NCc1ccccn1)NCC(c1ccco1)N1CCCCC1 (stereo not drawn) | -5.04 |
| Cc1nc(CN2CCN(C(=O)CC(C)(C)c3ccccc3)CC2)no1 | -5.37 |
| O=C(Cn1cc(I)cn1)N1CCOCC1 | -3.24 |
| C[S+]([O-])c1nncn1CC(=O)c1ccc2c(c1)CCC2 (stereo not drawn) | 8.46 |
| COc1ccccc1NC(=O)NC(C)c1nc[nH]n1 (stereo not drawn) | 0.321 |
| CC(NC(=O)Nc1ccc(F)c(F)c1)c1nc[nH]n1 (stereo not drawn) | -2.38 |
| CS(=O)(=O)NC(=O)c1cc(Cl)c2c(c1)OCCCO2 | 0.437 |
| CCN1CC(C(=O)NC(C)(C)C)CC1=O (stereo not drawn) | -6.02 |
| CCC(C)(NCc1cccc(NC(C)=O)c1)c1nc(C)cs1 (stereo not drawn) | -0.722 |
| Cc1nn(C)c(N(C)C)c1CNCc1ccc(N(C)C)nc1 | -2.4 |
| Cc1cc(C(=O)Cn2cnnc2[S+](C)[O-])cc(C)c1F (stereo not drawn) | 33.6 |
| Cc1ccc(CNCc2c(C)nn(C)c2N(C)C)cn1 | -3.06 |
| CCC(C)(NCC(=O)NC(C)C)c1nc(C)cs1 (stereo not drawn) | -3.79 |
| CC(C)CCN1CCN(Cc2nc(C(C)C)no2)CC1 | -0.333 |
| CCCc1noc(CN2CCN(CCC(C)C)CC2)n1 | -2.49 |
| CCc1cc(CNC(=O)NCC(c2ccco2)N2CCCC2)[nH]n1 (stereo not drawn) | -3.15 |
| Cc1nc(CN2CCN(C(=O)CCc3cccnc3)CC2)no1 | 16.4 |
| Cc1cc(C(N)=O)ccc1NC(=O)c1nc(N2CCCCC2)ncc1Cl | 3.51 |
| O=C(Nc1ccc(N2CCCCC2)nc1)N1CCc2sccc2C1 | 16.2 |
| COc1cc(CN(C)C(=O)NCCC(=O)NC2CCCC2)ccc1SC | 14.4 |
